The text below walks through data of a melting point compilation (Tetko et al.; mined from patent text by program, amines drawn as free bases though some values may be those of a salt).

By melting point is commonly meant the temperature, or range, at which the solid turns liquid.

The compound `Cc1cc(C(O)(C(F)(F)F)C(F)(F)F)cc(C)c1OCC(=O)NCc1ccccc1` registered a melting point of 142 to 144 °C.

`COC(=O)c1cn2c(n1)COc1cc(C)c(Cl)cc1-2`: the melting point was in the range of 242 to 246 °C.

`CCOC(=O)C1=C(CO)NC(C)=C(C(=O)OCCO)C1c1ccccc1[N+](=O)[O-]` (stereo not given): the melting point lay within 167 to 169 °C.

The compound `CCc1nnc(-c2ccc3occ(-c4ccc(SC)cc4)c3c2)o1` returned a melting point of 164 to 165 °C.

`COc1cc(OC)c(C(=O)CC(O)C(=O)O)cc1OC` (stereo not given) gave a melting point of 145 to 147 °C.

Compound `Cc1cc([N+](=O)[O-])ccc1S(=O)(=O)n1c(Br)nc(Br)c1C` showed a melting point of 187 to 189 °C.

`CCN(CC)c1ccc(-c2cc(-c3ccc(C(=O)O)cc3)ccc2CCCO)cc1C(C)(C)C` registered a melting point of 95 °C.

Compound `Cc1ccc(CNc2ccc3c(C#N)cccc3n2)o1` had a melting point of 102 °C.

For the compound `CS(=O)(=O)N(CCO)C1CCC(Nc2nccc(-n3nnc4ccccc43)n2)CC1` (stereo not given), the melting point was 230 to 231 °C.

For the compound `COC1=C(OC)C(=O)C(CCCCCCCCCCCCCCCCCCCCCC(=O)O)=C(C)C1=O`, the melting point was 86 to 87 °C.

Turning to `Cc1c(-c2ccccc2)oc2c(CO)cccc2c1=O`, the melting point was in the range of 145 to 147 °C.

With `COc1ccc(COc2cccc(C=O)c2OCc2ccc(OC)cc2)cc1`, the melting point is 92 to 93 °C.

Turning to `CN(C)CC(=O)Nc1ccccc1[N+](=O)[O-]`, the melting point was 44 to 47 °C.

Regarding `FC(F)(F)c1cccc(C=Cc2ccccc2)c1`, the melting point was 127 to 129 °C.

Take `NNc1ccc(-c2ccc(Cl)cc2)nn1`: the melting point lay in the range of 176 to 180 °C.

On to `CC(C)(C)OC(=O)N[C@H]1CN(Cc2ccccc2)[C@@H]2CCO[C@H]12` (relative stereo), for which the melting point was 115 to 116 °C.

`CC1C(=O)CCC2(C)C1CCC1C3CCC(=Cc4ccccc4Cl)C3(C)CCC12` (stereo not given) had a melting point of 205 to 208 °C.

For the compound `CCN1C=C(C(=O)c2c(C)nn3ccccc23)CCC1`, the melting point lay in the range of 104 to 105 °C.

`CC(C)(C)c1cc(C#N)c(O)c(Br)c1Cl` had a melting point of 105 to 107 °C.

Turning to `CC(C)(C)Cn1cc(-c2ccc(Oc3ccccc3)cc2)c2c(N)ncnc21`, the melting point turned out to be 158 °C.

For `ON=C1CCN(CC2CCCO2)CC1` (stereo not given), the melting point lay within 104 to 106 °C.

`COc1ccc(C(C)(C)C)cc1S(N)(=O)=O` came in with a melting point of 156 to 158 °C.

Compound `COc1ccc(-c2cc(=O)n(CC=Cc3ccc(Cl)cc3)nc2-c2ccc(OC)c(F)c2)cc1F` displayed a melting point of 72.5 to 74.9 °C.

For `COc1cc(I)ccc1C(=O)Nc1ccc(OC)c(N2CCN(C)CC2)c1`, the melting point was in the range of 168 to 170 °C.

`CCOC(=O)/C=C/c1ccc(OC(C)=O)c(Cl)c1` registered a melting point of 59 to 61 °C.

With `COCCOc1ccc(OCC(O)CNCCOc2ccc(OC)cc2)c(C#N)c1` (stereo not given), the melting point fell in the range of 95 to 97 °C.

`Cc1c(O)cc2c(c1C)CCC2(C)C`: the melting point fell in the range of 117 to 118 °C.

`COc1nc(NC(=O)NS(=O)(=O)c2ccccc2OC(F)F)nc(N(C)C)n1` showed a melting point of 171 to 172 °C.

As for `CCOC(=O)CN1C(=O)N(c2ccc(C#N)c(C(F)(F)F)c2)C(=O)C1(C)C`, the melting point came to 152 °C.

On to `O=C1NC(=O)[C@@]2(C[C@@H](C(=O)NCCO[N+](=O)[O-])Oc3ccc(F)cc32)N1`, for which the melting point lay within 266 to 271 °C.

For `Cc1ccc2nc(-c3ccc([N+](=O)[O-])cc3)c(CNC(=O)CC(C)C)n2c1`, the melting point was in the range of 221 to 222 °C.

For `COc1ccc(Oc2c(C)cc([N+](=O)[O-])cc2C)cc1Cc1ccc(F)cc1`, the melting point is 105 to 110 °C.

In turn, `CN(CCNc1ccc2ncc(-c3ccccc3)n2n1)C(=O)OC(C)(C)C` showed a melting point of 150 to 151 °C.

Regarding `CCN(CCc1c[nH]c2ccc(F)cc12)C1COc2c(F)ccc(C(=O)NC)c2C1` (stereo not given), the melting point is 125 °C.

As to `CC(C)(C)C(=O)CC(=O)Nc1cc(OC(=O)c2cc(C(C)(C)C)c(O)c(C(C)(C)C)c2)ccc1Cl`, the melting point was 145 to 147 °C.

`O=C(c1cc(-c2ccc(F)cc2)c(-c2ccc(F)cc2)s1)C(F)(F)F` had a melting point of 120 to 122 °C.

Turning to `O=C(CBr)N[C@H](CO)Cc1ccccc1`, the melting point fell in the range of 83 to 85 °C.

Compound `O=C(c1ccccc1)c1ccc(-c2ccc(-c3ccc(Cl)cc3)s2)s1` had a melting point of 165 to 175 °C.

For `COc1ccc(CCNc2nc(Cl)nc(N3CCc4cc(OC)c(OC)cc4C3)n2)cc1OC`, the melting point lay in the range of 152 to 153 °C.

In turn, `COC(=O)c1c(OC)ccc(N)c1OC` came in with a melting point of 78 to 80 °C.

`CCN(C(=O)c1ccccc1C(=O)c1ccccc1)C1CCCCC1NS(=O)(=O)c1ccc(C)cc1` (stereo not given) yielded a melting point of 202 to 204 °C.

For `O[C@@]1(c2ccc(Cl)c(Cl)c2)CCC[C@H]2NCC[C@H]21` (racemic), the melting point fell in the range of 190 to 191 °C.

Consider `Cn1cc(C2=C(c3cccc(NC4COC(C)(C)OC4)c3)C(=O)NC2=O)c2ccccc21`, for which the melting point was 201 to 203 °C.

`COC(=O)C(Oc1cc(OCc2ccc3ncoc3c2)ccc1C#N)c1ccccc1Cl` (racemic) displayed a melting point of 157 to 159 °C.

Compound `CC(CNc1c(C(=O)O)cccc1[N+](=O)[O-])NCc1ccccc1` (stereo not given) had a melting point of 227 °C.

With `CC(C)[C@H](NC(=O)N(C)Cc1cscn1)C(=O)N[C@@H](Cc1ccccc1)C[C@H](O)[C@H](Cc1ccccc1)NC(=O)[C@@H](NC(=O)N(C)Cc1cscn1)C(C)C`, the melting point lay within 154 to 156 °C.

Take `COc1ccc(Cc2nc(N3CCOCC3)c3c(C)c(C#N)sc3n2)cc1OC`: the melting point was 67 to 70 °C.

Consider `CCCCCCOc1ccc(N=C(NC#N)NCCC(C)(C)C)cc1`, for which the melting point is 183 to 184 °C.

Regarding `Cc1ccn(-c2ccc(C(=O)O)c(C(F)(F)F)c2)n1`, the melting point is 192 to 194 °C.

In turn, `CCC(=O)OCC1OC(n2cnc3c(=O)[nH]c(N)nc32)C(F)C1OC(=O)CC` (stereo not given) had a melting point of 198 to 200 °C.

`Cc1cccc(C(C)(C)C)c1-n1sc(=O)n(Cc2ccccc2)c1=O` gave a melting point of 89.8 °C.

For the compound `Cc1cnc(CNC(=O)c2c(-c3ccccc3)c(-c3ccc(F)cc3)c(/C=C\[C@@H](O)C[C@@H](O)CC(=O)OC(C)(C)C)n2C(C)C)cn1`, the melting point was 168 to 170 °C.

Take `COc1ccc2nc(N)nc(C3CCN(C(=O)c4ccccc4)CC3)c2c1`: the melting point was in the range of 172 to 173 °C.

`O=S(=O)(NCCCN1CCC(Oc2ccc(Cl)c(Cl)c2)CC1)c1ccc(-c2ccccn2)s1`: the melting point was determined as 115 °C.

In turn, `CCCCNC(=O)[C@H](C)C[C@H](O)[C@H](CC1CCCCC1)NC(=O)[C@H](Cc1cscn1)NC(=O)[C@@H](CC(=O)N1CCN(C)CC1)Cc1ccc(OC)cc1` displayed a melting point of 125 to 126 °C.

In the case of `CC(C)(C)c1cc(/C=C(\C#N)C(N)=S)cc(C(C)(C)C)c1O`, the melting point was found to be 210 °C.

In turn, `C=CCCCc1ccc(C=CC(=O)c2ccc(OCC=C(C)C)cc2)c(OCC(=O)O)c1` gave a melting point of 116 to 118 °C.

The compound `CCOC(=O)Cc1ccc(NC(=O)C(COS(C)(=O)=O)NS(=O)(=O)c2ccc(Br)cc2)cc1` (racemic) gave a melting point of 155 to 156 °C.

`O=C1Nc2cccnc2N(C(=O)NCCN2CCCCC2CNCC2CCCC2)c2ccccc21` (stereo not given) had a melting point of 157 to 158 °C.

As for `O=[N+]([O-])N(c1ccccc1)c1ccccc1`, the melting point was determined as 118 °C.

Turning to `CC(=O)CN1C(=O)COc2ccccc21`, the melting point lay within 74 to 76 °C.

`C=CCNc1nc(NCC=C)nc(N2CCN(C(=O)NCC(c3ccccc3)c3ccccc3)CC2)n1` came in with a melting point of 90 to 92 °C.

`O=c1oc(-c2cccc(OCc3ccccc3)c2)cc(O)c1SCCc1ccccc1`: the melting point fell in the range of 126 to 127 °C.

As for `O=C(Nc1ccccc1)NC1C(=O)Nc2ccccc2N(CC23CC4CC(CC(C4)C2)C3)C1=O` (stereo not given), the melting point is more than 280 °C.

On to `COc1ccc(-c2nc(S(=O)c3ccccc3)[nH]c2-c2ccc(OC)cc2)cc1` (stereo not given), for which the melting point was 188 to 190 °C.

The compound `CCCCOC(=O)C(C)NC(=O)c1cc([N+](=O)[O-])cc([N+](=O)[O-])c1` (stereo not given) had a melting point of 93 to 96 °C.

In turn, `COc1ccccc1-c1nc(N)c(C(N)=O)nc1-c1ccc(=O)n(C(C)C)c1` yielded a melting point of 263 °C.

Turning to `CCOc1c(NCc2c(C)cccc2C)c(=O)c1=O`, the melting point lay in the range of 281 to 283 °C.

The compound `Nc1cccc(Oc2ccc(Sc3ccc(Oc4cccc(N)c4)cc3)cc2)c1` yielded a melting point of 112 to 113 °C.

`CC(=O)NCc1nc2c(N)nc3ccccc3c2n1CC(C)C` had a melting point of 214 to 218 °C.

`C[C@H]1C(=O)CCN1c1ccc(C#N)c2ccccc12` had a melting point of 113 to 114 °C.

`OC[C@H]1OC[C@@H](n2c(Br)nc3cc(Cl)c(Cl)cc32)[C@H](O)[C@@H]1O` had a melting point of 207 to 209 °C.

`COc1cc(N2C(=O)c3ccccc3C2=O)c(F)cc1C#N` came in with a melting point of 245 °C.

As to `CC(C)(C)n1cnc2c(O)nc3ccccc3c21`, the melting point is more than 300 °C.

Turning to `CCn1cc(C(=O)O)c(=O)c2c(C)c(F)c(N3CCNCC3)c(F)c21`, the melting point was 223 to 225 °C.

`CC(C)c1ccc(C(=O)O)cc1S(N)(=O)=O` came in with a melting point of 245 °C.

In turn, `O=C(O)c1ccc(-c2nc(-c3ccccc3)ccc2Cl)cc1` registered a melting point of 254 to 255 °C.

The compound `COC(=O)c1ccc(-c2c(C(=O)N(C)Cc3cc(C(F)(F)F)cc(C(F)(F)F)c3)n(C)c(=O)c3ncccc23)cc1` yielded a melting point of 123 to 125 °C.

In turn, `O=C1CCC(N2Cc3cc(CNC(=O)c4ccc(Cl)c(Cl)c4)ccc3C2=O)C(=O)N1` (stereo not given) yielded a melting point of 260 to 262 °C.

`CC(c1c[nH]cn1)c1cccc(C#N)c1O` (stereo not given) showed a melting point of 172 °C.

`CC(C)Oc1ccc(-c2nn([C@@H](C)c3oc4ccc(F)cc4c(=O)c3-c3cccc(F)c3)c3ncnc(N)c23)cc1F`: the melting point lay within 139 to 142 °C.

Compound `CNC(=O)c1ccc(C(F)(F)F)c(N)c1` had a melting point of 114 to 115 °C.

For `Cc1ccc(C(=O)O)cc1NC(=O)C(CS)Cc1ccccc1` (stereo not given), the melting point was in the range of 192 to 194 °C.

Consider `COC(=O)C(NC(=O)c1ccccc1)C(C)=O` (stereo not given), for which the melting point is 113 °C.

`CCCC(=O)Nc1ccc(OCc2nc3cc(F)ccc3s2)cc1`: the melting point lay in the range of 201 to 202 °C.
